“Also recorded” adds a separate entry of the source.

The source of these data is patent publication US20020037872A1, “N6 heterocyclic 5' modified adenosine derivatives” (CV Therapeutics, Inc., priority 1999, published 2002).

Assay [1] addresses T1, A1 adenosine receptor (Cavia porcellus, UniProt P47745).
T1 construct: The hearts were quickly removed and rinsed in ice-cold Krebs-Henseleit solution; from tissue; host or cells: guinea pig isolated perfused heart
T1 sequence (P47745 1-326): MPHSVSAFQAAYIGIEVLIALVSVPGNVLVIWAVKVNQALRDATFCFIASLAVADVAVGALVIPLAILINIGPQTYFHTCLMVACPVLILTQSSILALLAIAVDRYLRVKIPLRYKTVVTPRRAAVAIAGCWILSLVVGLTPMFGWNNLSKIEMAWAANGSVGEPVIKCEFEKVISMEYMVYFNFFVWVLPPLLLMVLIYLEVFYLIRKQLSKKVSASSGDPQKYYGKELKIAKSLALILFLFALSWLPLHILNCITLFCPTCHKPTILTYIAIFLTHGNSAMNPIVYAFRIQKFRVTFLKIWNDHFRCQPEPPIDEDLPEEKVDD
Description: Guinea pig isolated perfused heart: S-H interval, heart rate, atrial MAP. To be noted: for effect on atrial monophasic action potential: FIG. 1 panel B; for effect on AV nodal conduction time (S-H interval) / second-degree AV block: FIG. 1 panel C; for effect on heart rate (chronotropic): spontaneously beating hearts, FIG. 1 panel A. The protocol:
Guinea pigs of either sex weighing 250-300 g were anesthetized with methoxyflurane and killed by cervical dislocation. The hearts were quickly removed and rinsed in ice-cold Krebs-Henseleit solution. The aorta was cannulated and the heart retrogradely perfused at a constant flow of 10 ml min^−1 with modified Krebs-Henseleit solution containing (mM): NaCL 117.9, KCl 4.8, CaCl2 2.5, MgSO4 1.18, KH2PO4 1.2, Na2EDTA 0.5, ascorbic acid 0.14, glucose 5.5, pyruvic acid (sodium salt) 2.0, and NaHCO3 25. The K—H solution was oxygenated with 95% oxygen and 5% CO2, pH 7.4, and temperature maintained at 36° C.
Hearts were electrically paced at a cycle length of 290-300 ms (unless otherwise indicated) using a bipolar electrode placed on the right atrium or ventricle. The stimulator, an interval generator (Model 1830, WPI, Sarasota, Fla., U.S.A.) delivered stimuli through a stimulus isolation unit (Model 1880, WPI) as square wave pulses of 3 ms in duration and at least twice the threshold intensity. The stimulus-to-His bundle (S—H) interval was used as index of AV nodal conduction time and was measured on-line during constant atrial pacing from microcomputer with a DT-208 1A interface board (Axon Instruments, Burlingame, Calif., U.S.A.) In experiments to study the chronotropic effect (effect on heart rate) of A1 AdoR agonists, the hearts were allowed to beat spontaneously. An atrial electrogram was used to record the electrical activity of the atria and to measure the heart rate.
Monophasic action potentials (MAP) were recorded using a pressure contact silver-silver chloride electrode (Langendorf Probe, EP Technologies, Inc., Sunnyvale, Calif., U.S.A.) placed on the surface of the left atrium. […] Signals were considered adequate if they were stable for at least 5 min and the amplitudes of the MAPs exceeded 10 mV. The data were digitized at 2 kHz by a DT-2801A digitizing board (Data Translation, Marlboro, Mass., U.S.A.) and stored using the Snapshot data acquisition program (Snapshot Storage Scope, HEM Data Corp., Southfield, Mich., U.S.A.) for later analysis. The duration of the atrial monophasic action potential was measured at 90% repolarization (MAPD90), using the Snapshot program. After completion of dissection and instrumentation, the hearts were allowed to equilibrate for 30 min before the experiments were begun. Whenever the baseline and post-intervention (washout) values differed by more than 15% the data were discarded. Approximately 60-70% of the experiments conformed with this criteria.

In assay [2] the target is T2, A1 receptor (Oryctolagus cuniculus, UniProt P34970).
T2 construct: a rabbit ischemia model wherein 2-chloro-N6-cyclopentyladenosine (CCPA) and R-PIA were administered prior to ischemia; host or cells: rabbit in vivo
T2 sequence (P34970 1-328): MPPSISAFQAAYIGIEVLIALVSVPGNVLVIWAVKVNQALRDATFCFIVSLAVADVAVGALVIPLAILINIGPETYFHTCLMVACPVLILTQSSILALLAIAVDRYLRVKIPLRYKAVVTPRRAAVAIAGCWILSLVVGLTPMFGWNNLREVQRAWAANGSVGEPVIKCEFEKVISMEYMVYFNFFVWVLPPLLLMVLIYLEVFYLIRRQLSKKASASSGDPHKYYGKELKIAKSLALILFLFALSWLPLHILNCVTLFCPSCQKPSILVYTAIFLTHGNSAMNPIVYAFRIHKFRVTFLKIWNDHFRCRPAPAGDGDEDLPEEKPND
To be noted: administered prior to ischemia; cited from earlier work.

Assay [3] deals with T3, A1 adenosine receptor (Mesocricetus auratus, UniProt A0A1U8BVR4).
T3 construct: endogenous in cells; host or cells: DDT1 (DDT1 MF-2) hamster vas deferens smooth muscle cells
T3 sequence (A0A1U8BVR4 1-326): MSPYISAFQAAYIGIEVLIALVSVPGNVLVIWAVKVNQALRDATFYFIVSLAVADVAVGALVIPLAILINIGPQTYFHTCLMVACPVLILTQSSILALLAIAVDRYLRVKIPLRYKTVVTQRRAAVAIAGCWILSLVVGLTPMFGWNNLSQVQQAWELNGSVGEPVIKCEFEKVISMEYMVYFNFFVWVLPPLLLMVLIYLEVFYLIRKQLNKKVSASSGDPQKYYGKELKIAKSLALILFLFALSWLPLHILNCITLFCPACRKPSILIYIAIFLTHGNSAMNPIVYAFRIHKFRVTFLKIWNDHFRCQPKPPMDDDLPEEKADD
Description: cAMP assay (SPA) in DDT1 cells, forskolin-induced cAMP. The class given is cell-based, hamster. The protocol: A scintillation proximity assay (SPA) using rabbit antibodies directed at cAMP using an added tracer of adenosine 3′,5′-cyclic phosphoric acid 2′-O-succinyl-3-[^125I]iodotyrosine methyl ester and fluoromicrospheres containing anti-rabbit specific antibodies as described by Amersham Pharmacia Biotech (Biotrak cellular communication assays). Briefly, DDT1 cells were cultured in clear bottomed 96 well microtiter plates with opaque wells at concentrations between 10^4 to 10^6 cells per well in 40 μl of HBSS at 37° C. (5% CO2 and 95% humidity). The partial or full A1 agonists (5 μl) of this invention were incubated at various concentrations with the DDT1 cells in the presence of rolipram (50 μM), and 5 μM forskolin for 10 min at 37° C. The cells were immediately lysed by treatment 5 μl of 10% dodecyltrirnethylammonium bromide followed by shaking using rnicroplate shaker. After incubation of the plate for 5 minutes, an imnuunoreagent solution (150 μl containing equal volumes of tracer, antiserum, and SPA fluorospheres) was added to each well followed by sealing the plate. After 15-20 h at 23° C., the amount of bound [^125] cAM to the fluoromicrospheres was determined by counting in a microtitre plate scintillation counter for 2 minutes. Comparison of counts with standard curves generated for cAMP using a similar protocol afforded the cAMP present after cell lysis.

Assay [4] concerns white adipocytes. The following applies: cited from earlier work.
Assay [5] addresses A1 receptor (Cavia porcellus, UniProt P47745). The following applies: chronic administration for 7 days; cited from earlier work.
For assay [6] the following is noted: seizures induced by DMCM; cited from earlier work.

Take `OC[C@H]1O[C@@H](n2cnc3c(NC4CCCC4)nc(Cl)nc32)[C@H](O)[C@@H]1O` [CCPA, 2-chloro-N6-cyclopentyladenosine]: in assay [1], the “effect on atrial monophasic action potential” value was “shortened the monophasic atrial action potential”, the “effect on AV nodal conduction time (S-H interval)” value was “prolonged the S—H interval”, the “second-degree AV block” value is recorded as “caused second-degree AV block” and the “effect on heart rate (chronotropic)” value was “slowed heart rate”. For the same compound, the “protection with respect to infarct size” value in assay [2] is “providing protection with respect to infarct size”.

With `OC[C@H]1O[C@@H](n2cnc3c(NC4CCCC4)ncnc32)[C@H](O)[C@@H]1O` [CPA, N-6-cyclopentyladenosine], the “second degree AV block” value in assay [1] (30 nM CPA, four hearts) is reported as “Second degree AV block occurred in all hearts”. Besides, in assay [1], the “effect on atrial monophasic action potential” value is “shortened the monophasic atrial action potential”, the “effect on AV nodal conduction time (S-H interval)” value is listed as “prolonged the S—H interval”, the “second-degree AV block” value was “caused second-degree AV block” and the “effect on heart rate (chronotropic)” value is “slowed heart rate”. Besides, in assay [3] (DDT1 cells), the “effect on forskolin induced cAMP generation” value is recorded as “diminished the amount of forskolin induced cAMP generation back to basal levels”. The same compound registered a cAMP in assay [3] (normalized to full agonist CPA, 5 μM forskolin, 50 μM rolipram) of 100%.

With `O=c1[nH]c(=O)c2[nH]c(C3CCCC3)nc2[nH]1` [CPX, 8-cyclopentylxanthine], the “antagonism of S-H interval prolongation caused by Compound 6” value in assay [1] (CPX 50 nM, cycle length 300 msec, FIG. 2) is recorded as “significant (P<0.05); also recorded: antagonizes the prolongation of S—H interval caused by compound 6”.

As to `C[C@H](Cc1ccccc1)Nc1ncnc2c1ncn2[C@@H]1O[C@H](CO)[C@@H](O)[C@H]1O` [R-PIA, R-N6-phenylisopropyladenosine], in assay [4], the leptin release entry was “increase the leptin released from white adipocytes”. In addition, the “desensitization of A1 receptor (dromotropic response)” value in assay [5] is listed as “led to a desensitization”.

`Cc1ccccc1CNc1ncnc2c1ncn2[C@@H]1O[C@H](CO)[C@@H](O)[C@H]1O` [metrifudil]: the anticonvulsant activity entry in assay [6] is given as “potent anticonvulsant”.
